“And” between values parts separate entries of the source, which are not always exact repeats. Equal values may be shown once.
Experiments:
PHTX-21c s.c. xenograft [1] = test: MLN0264 and 5-Fluorouracil in PHTX-21C s.c. xenografts (Study CPGC-11-EF01); assay type: in vivo, CB-17 SCID mice; settings: for dAUC: reference vehicle
Protocol: (§1) Tumor volume was calculated using the formula: […]

[2] = tested on: PHTX-17c primary human mCRC tumor xenograft; test: 5F9 vcMMAE single agent efficacy in PHTX-17c; assay type: in vivo, SCID mice
PHTX-17c s.c. xenograft = test: MLN0264 and CPT-11 in PHTX-17C s.c. xenografts (Study CPGC-11-EF06); assay type: in vivo, CB-17 SCID mice
Protocol: as §1

[3] = tested on: PHTX-215 Pa primary human pancreatic tumor xenograft; test: Single-agent 5F9 vcMMAE in PHTX-215 Pa pancreatic xenograft; assay type: in vivo, mice
Description: (§2) The purpose of this study was to evaluate in vivo anti-tumor activity induced by combined administration of the 5F9 vcMMAE immunoconjugate (sometimes referred to herein as “MLN0264”) and gemcitabine in mouse xenograft primary human tumor explants (PHTX models of pancreatic cancer. These models included tumor tissue from patients with wild-type and mutant KRAS. Five pancreatic PHTX were generated by Champions Oncology (Hackensack, N.J.) using their CTG platform. 2 PHTX models were developed in-house. GCC expression was evaluated in each of the 7 PHTX models using the automated IHC assay described above.
(§3) In vivo anti-tumor studies of single-agent 5F9 vcMMAE immunoconjugate was conducted in all seven of the pancreatic subcutanreous xenograft mouse models. Animals were administered vehicle, free MMAE at 0.135 mg/kg once weekly (QW), a non-GCC targeting ADC at 7.5 mg/kg QW, or 5F9 vcMMAE at 3.75 or 7.5 mg/kg QW. The results for single agent activity of the immunoconjugate in PHTX-215 Pa and PHTX-249 Pa models is shown in FIGS. 15A and 15B, respectively.

[4] = tested on: PHTX-215 Pa s.c. xenograft; test: 5F9 vcMMAE and gemcitabine in PHTX-215 Pa s.c. xenografts (Study CPGC-13-EF10); assay type: in vivo, CB-17 SCID mice; settings: PHTX-215 Pa s.c. xenograft, CB-17 SCID mice, reference vehicle
Protocol: (§4) Day D0 was the first day of treatment.
as §1
Table 77A the annotation table for group symbols. […] A negative dAUC is interpreted as an increase in AUC relative to the reference. It is important to evaluate not only the P value, but also the dAUC. Comparisons with significant P values, but small dAUC values, may not be of interest.

PHTX-11c s.c. xenograft = test: MLN0264 and CPT-11 in PHTX-11c s.c. xenografts (Study CPGC-12-EF01)
Description: The objective of this study was to explore the combination activity in a model having moderate level of GCC antigen density yet resistance to the immunoconjugate alone.
(§5) The endpoints for each treatment group was either a) tumor volume reaches 10% body weight; or b) body weight loss of >20%. The projected tumor volume at the study initiation date was 200 mm^3.
Not greater than one day prior to dosing, all animals were weighed to the nearest gram and grouped. Dosing solutions were vortexed prior to each administration to ensure correct delivery of compound. Animals received approximately 0.1 ml doses administered I.V. using a 1 cc syringe, 25-30 gauge, ½-¾ inch in length.
Tumor volume measurements (0.01 mm) were obtained twice per week using Vernier calipers (0.01 mm). Tumor volume was calculated using the formula:
(§6) Efficacy was evaluated in terms of % tumor growth inhibition (TGI) and tumor growth delay (TGD). TGI was assessed on an arbitrary day (when the maximum tumor volume (MTV of the control treatment group reaches the maximum allowable tumor volume), using the following formula:
(§7) TGD was assessed by calculating T−C, where T=mean time (in days) for treatment group tumors to reach a predetermined size, and where C=mean time (in days) for the control group tumors to reach a predetermined size (e.g., 1,000 mm^3).
(§8) To compare pairs of treatment groups, the following mixed-effects linear regression model was fit to the data using the maximum likelihood method:
(§9) The predicted differences in the log tumor values (Yijk−Yi0k, which can be interpreted as log10 (fold change from day 0)) were taken from the above models to calculate mean AUC values for each treatment group. A dAUC value was then calculated as:
(§10) For synergy analyses, the observed differences in the log tumor values were used to calculate AUC values for each animal. […] The AUC for the control, or vehicle, group was calculated using the predicted values from the pairwise models described above. To address the question of whether the effects of the combination treatments were synergistic, additive, or sub-additive relative to the individual treatments, the following statistics were calculated:
where Ak and Bk are the k^th animal in the individual treatment groups and ABk is the k^th animal in combination treatment group. AUCctl is the model-predicted AUC for the control group and was treated as a constant with no variability. The standard error of the synergy score was calculated as the square root of the sum of squared standard errors across groups A, B, and AB. The degrees of freedom were estimated using the Welch-Satterthwaite equation. P values were calculated by dividing the synergy score by its standard error and tested against a t-distribution (two-tailed) with the above-calculated degrees of freedom.
The effect was classified into four different categories. It was considered synergistic if the synergy score was less than 0 and additive if the synergy score wasn't statistically different from 0. […] Interval analysis, if requested, involved a specified treatment group and time interval compared with another treatment group and time interval. For a given group, time interval, and animal, the tumor growth rate per day was estimated by

PHTX-09c s.c. xenograft [5] = test: 5F9 vcMMAE and CPT-11 in PHTX-09C s.c. xenografts (Study CPGC-11-EF07); settings: for Days to 1000 mm^3 / Mean tumor volume ± S.E.M (mm3) / T/C / TGI: PHTX-09c
Protocol: as §5
Not greater than one day prior to dosing, all animals were weighed to the nearest gram and grouped. Dosing solutions were vortexed prior to each administration to ensure correct delivery of compound. Animals received approximately 0.1 ml doses administered I.V. using a 1 cc syringe, 25-30 gauge, ½-¾ inch in length. Animals were dosed based on an average body weight of 20 grams.
(§11) Tumor volume measurements were obtained twice per week using Vernier calipers (0.01 mm). Tumor volume was calculated using the formula:
as §6, §7, §8
The −2 log likelihood of the full model was compared to one without any treatment terms (reduced model) and the difference in the values was tested using a Chi-squared test. The degrees of freedom of the test were calculated as the difference between the degrees of freedom of the full model and that of the reduced model. The predicted differences in the log tumor values (Yijk−Yi0k, which can be interpreted as log10 (fold change from day 0)) were taken from the above models to calculate mean AUC values for each treatment group. A dAUC value was then calculated as:
as §10
where Ak and Bk are the k^th animal in the individual treatment groups and ABk is the k^th animal in combination treatment group. AUCctl is the model-predicted AUC for the control group and was treated as a constant with no variability. […] The standard error of the synergy score was calculated as the square root of the sum of squared standard errors across groups A, B, and AB. The degrees of freedom were estimated using the Welch-Satterthwaite equation. P values were calculated by dividing the synergy score by its standard error and tested against a t-distribution (two-tailed) with the above-calculated degrees of freedom.

PHTX-09c s.c. xenograft [6] = test: 5F9 vcMMAE and cisplatin in PHTX-09c s.c. xenografts (Study CPGC-11-EF05); settings: reference vehicle
Protocol: as §5
(§12) Not greater than one day prior to dosing, all animals were weighed to the nearest gram and grouped. Dosing solutions were vortexed prior to each administration to ensure correct delivery of compound. Animals received approximately 0.1 ml doses administered I.V. using a 1 cc syringe, 27-30 gauge, ½-¾ inch in length.
as §11
Efficacy was evaluated in terms of % tumor growth inhibition (TGI) and tumor growth delay (TGD); the difference in days for treated vs. control tumors to reach final study volume).
TGI was assessed on an arbitrary day (when the maximum tumor volume (“MTV” of the control treatment group reaches the maximum allowable tumor volume), using the following formula:
as §7, §9
For synergy analyses, the observed differences in the log tumor values were used to calculate AUC values for each animal. […] The AUC for the control, or vehicle, group was calculated using the predicted values from the pairwise models described above. A measure of synergy was defined as follows:
where Ak and Bk are the k^th animal in the individual treatment groups and ABk is the k^th animal in combination treatment group. AUCctl is the model-predicted AUC for the control group and was treated as a constant with no variability. The standard error of the synergy score was calculated as the square root of the sum of squared standard errors across groups A, B, and AB. The degrees of freedom were estimated using the Welch-Satterthwaite equation. A hypothesis test was performed to determine if the synergy score differed from 0. P values were calculated by dividing the synergy score by its standard error and tested against a t-distribution (two-tailed) with the above-calculated degrees of freedom.
The effect was classified into four different categories. It was considered synergistic if the synergy score was less than 0, and additive if the synergy score wasn't statistically different from 0.

[7] = tested on: 293 GCC#2 tumor xenograft; test: 5F9 vcMMAE single agent efficacy in 293 GCC#2 xenograft (Example 5); assay type: in vivo, SCID mice; settings: dose 1.875-7.5 mg/kg, QW, T/C=volume of tumor/control
[8] = tested on: PHTX-249 Pa s.c. xenograft; test: 5F9 vcMMAE and gemcitabine in PHTX-249 Pa s.c. xenografts (Study CPGC-13-EF05); assay type: in vivo, CB-17 SCID mice; settings: group A: MLN0264 7.5 mg/kg QW; reference vehicle
Protocol: as §4, §1
A negative dAUC is interpreted as an increase in AUC relative to the reference. It is important to evaluate not only the P value, but also the dAUC. Comparisons with significant P values, but small dAUC values, may not be of interest.

PHTX-21c s.c. xenograft [9] = test: MLN0264 and CPT-11 in PHTX-21C s.c. xenografts (Study CPGC-11-EF04)
Protocol: as §5, §12, §11, §6
TGD was assessed by calculating T−C, where T=mean time (in days) for treatment group tumors to reach a predetermined size (e.g., 1,000 mm^3), and where C=mean time (in days) for the control group tumors to reach a predetermined size.
as §8, §9
For synergy analyses, the observed differences in the log tumor values were used to calculate AUC values for each animal. […] The AUC for the control, or vehicle, group was calculated using the predicted values from the pairwise models described above.

293-GCC#2 tumors = test: PK/PD study (phospho-histone H3) in 293-GCC#2 tumor bearing mice; assay type: in vivo
Description: Phospho-histone H3 was detected by antibody (Upstate Biotechnology, now Millipore, Billerica, Mass.) staining of paraffin embedded sections of tumors.

[10] = tested on: CTG pancreatic PHTX models (Champions Oncology); test: Single-agent 5F9 vcMMAE in Champions CTG pancreatic PHTX models; assay type: in vivo, mice
Description: as §2, §3

[11] = group A: MLN0264 7.5 mg/kg QW, reference vehicle
[12] = MLN0264 7.5 mg/kg QW i.v., W1-W3
[13] = PHTX-21c, ML0264 3.75 mg/kg i.v. QW

In the case of “5F9 vcMMAE: 5F9 mAb conjugated to MMAE using a vc (Val-Cit) linker; average drug loading about 3.6”, the “single agent anti-tumor activity” value (PHTX-21c s.c. xenograft [1]; PHTX-21c, 3.75 mg/kg) is reported as “relatively low anti-tumor activity”, the dAUC (PHTX-21c s.c. xenograft [1]; group C: MLN0264 3.75 mg/kg QW) is reported as 38.5% and the dAUC (PHTX-21c s.c. xenograft [1]; group D: MLN0264 7.5 mg/kg QW) is reported as 74.0%. The single agent sensitivity ([2]; 0.9375 mg/kg-10 mg/kg I.V. QW×3 weeks) was “Moderate sensitivity”, the T/C ([2]; dose 0.938-10 mg/kg, QW, T/C=volume of tumor/control) was 0.46 and the “Days to 1000 mm^3” value (PHTX-17c s.c. xenograft; PHTX-17c, ML0264 7.5 mg/kg QW) was greater than 17 days. The “Mean tumor volume ± S.E.M (mm3)” value (PHTX-17c s.c. xenograft; PHTX-17c, ML0264 7.5 mg/kg QW) was 886.1 ± 187.9 mm3, the T/C (PHTX-17c s.c. xenograft; PHTX-17c, ML0264 7.5 mg/kg QW) was 0.49 and the TGI (PHTX-17c s.c. xenograft; PHTX-17c, ML0264 7.5 mg/kg QW) was 51%. For the same substance, the dAUC (PHTX-17c s.c. xenograft; [11]) was 28.9%, the “tumor regressions (animals)” value ([3]; PHTX-215 Pa (KRAS wt), 7.5 mg/kg QW) was 3 out of 8 and the “tumor growth inhibition” value ([3]; PHTX-215 Pa, 7.5 mg/kg QW, by day 22) was “significantly great tumor growth inhibition (TGI) versus free MMAE”. The “TGI, %” value ([3]; single agent, model PHTX-215, KRAS wild-type, QWx3, day 21) was 79%, the “dAUC (percent decrease in treatment AUC relative to reference group V, vehicle)” value ([4]; group A: MLN0264 3.75 mg/kg IV QW) was 36.3% and the “dAUC (percent decrease in treatment AUC relative to reference group V, vehicle)” value ([4]; group B: MLN0264 7.5 mg/kg IV QW) was 75.1%. The “Days to 1000 mm^3” value (PHTX-11c s.c. xenograft; [12]) was 13.5 days, the “Mean tumor volume ± S.E.M” value (PHTX-11c s.c. xenograft; [12]) was 1263.4 ± 115.8 mm3 and the T/C (PHTX-11c s.c. xenograft; [12]) was 0.62. For the same substance, the TGD (PHTX-11c s.c. xenograft; [12]) was 4.7 days, the TGI (PHTX-11c s.c. xenograft; [12]) was 37.7% and the “single agent anti-tumor activity” value (PHTX-11c s.c. xenograft; PHTX-11c, 7.5 mg/kg) was “very low activity”. The dAUC (PHTX-11c s.c. xenograft; [11]) was 22.6%, the single agent activity (PHTX-09c s.c. xenograft [5]; PHTX-09c (FIGS. 8B and 8C)) was “strong” and the “Days to 1000 mm^3” value (PHTX-09c s.c. xenograft [5]; ML0264 1.875 mg/kg i.v. QW ×3) was greater than 23 days. The “Mean tumor volume ± S.E.M (mm3)” value (PHTX-09c s.c. xenograft [5]; ML0264 1.875 mg/kg i.v. QW ×3) was 888.5 ± 126.2 mm3, the T/C (PHTX-09c s.c. xenograft [5]; ML0264 1.875 mg/kg i.v. QW ×3) was 0.82 and the TGI (PHTX-09c s.c. xenograft [5]; ML0264 1.875 mg/kg i.v. QW ×3) was 18.1%. For the same substance, the “Days to 1000 mm^3” value (PHTX-09c s.c. xenograft [5]; ML0264 3.75 mg/kg i.v. QW ×3) was greater than 23 days, the “Mean tumor volume ± S.E.M (mm3)” value (PHTX-09c s.c. xenograft [5]; ML0264 3.75 mg/kg i.v. QW ×3) was 861.1 ± 155.9 mm3 and the T/C (PHTX-09c s.c. xenograft [5]; ML0264 3.75 mg/kg i.v. QW ×3) was 0.79. It also gave a TGI (PHTX-09c s.c. xenograft [5]; ML0264 3.75 mg/kg i.v. QW ×3) of 20.6%, a dAUC (PHTX-09c s.c. xenograft [5]; Treated group A (ML0264 1.875 mg/kg) vs reference V (vehicle), percent decrease in AUC) of 16.1% and a dAUC (PHTX-09c s.c. xenograft [5]; Treated group B (ML0264 3.75 mg/kg) vs reference V (vehicle)) of 25.4%. For the same substance, the dAUC (PHTX-09c s.c. xenograft [6]; group A: MLN0264 1.875 mg/kg IV QW x3) was 17.8%, the dAUC (PHTX-09c s.c. xenograft [6]; group B: MLN0264 3.75 mg/kg IV QW x3, 3.75 mg/kg) was 28.4% and 44.8% and the T/C [7] was 0.03. The dAUC [8] was 26.4%, the “single agent anti-tumor activity” value (PHTX-21c s.c. xenograft [9]; PHTX-21c, 3.75 mg/kg) was “relatively low anti-tumor activity” and the “Days to 1000 mm^3” value (PHTX-21c s.c. xenograft [9]; [13]) was greater than 15 days. For the same substance, the “Mean tumor volume ± S.E.M (mm3)” value (PHTX-21c s.c. xenograft [9]; [13]) was 869.1 ± 105.2 mm3, the T/C (PHTX-21c s.c. xenograft [9]; [13]) was 0.64 and the TGI (PHTX-21c s.c. xenograft [9]; [13]) was 36.3%. The dAUC (PHTX-21c s.c. xenograft [9]; Treated group A (ML0264 3.75 mg/kg) vs reference V (vehicle)) was 25.1%, the “Average % Tumor cells pH 3 positive” value (293-GCC#2 tumors; single iv dose 75 μg/kg, 1 hr) was 4.525% and the “Average % Tumor cells pH 3 positive” value (293-GCC#2 tumors; single iv dose 75 μg/kg, 4 hr) was 2.552%. The “Average % Tumor cells pH 3 positive” value (293-GCC#2 tumors; single iv dose 75 μg/kg, 8 hr) was 4.244%, the “Average % Tumor cells pH 3 positive” value (293-GCC#2 tumors; single iv dose 75 μg/kg, 24 hr) was 9.8199% and the “Average % Tumor cells pH 3 positive” value (293-GCC#2 tumors; single iv dose 75 μg/kg, 48 hr) was 8.692%. The “Average % Tumor cells pH 3 positive” value (293-GCC#2 tumors; single iv dose 75 μg/kg, 96 hr) was 8.628%, the “Average % Tumor cells pH 3 positive” value (293-GCC#2 tumors; single iv dose 150 μg/kg, 1 hr) was 3.335% and the “Average % Tumor cells pH 3 positive” value (293-GCC#2 tumors; single iv dose 150 μg/kg, 4 hr) was 2.785%. For the same substance, the “Average % Tumor cells pH 3 positive” value (293-GCC#2 tumors; single iv dose 150 μg/kg, 8 hr) was 4.576%, the “Average % Tumor cells pH 3 positive” value (293-GCC#2 tumors; single iv dose 150 μg/kg, 24 hr) was 13.79% and the “Average % Tumor cells pH 3 positive” value (293-GCC#2 tumors; single iv dose 150 μg/kg, 48 hr) was 14.26%. The “Average % Tumor cells pH 3 positive” value (293-GCC#2 tumors; single iv dose 150 μg/kg, 96 hr) was 14.68%, the “TGI, %” value ([10]; model CTG-0300, KRAS Mut G12V, QWx5, day 28) was 64% and the “TGI, %” value ([10]; model CTG-0301, KRAS wild-type, QWx3, day 21) was 24%. The “TGI, %” value ([10]; model CTG-0302, KRAS Mut G12R, QWx3, day 21) was 36%, the “TGI, %” value ([10]; model CTG-0303, KRAS wild-type, QWx5, day 38) was 45% and the “TGI, %” value ([10]; model CTG-0492, KRAS Mut G12V, QWx3, day 21) was 62%.

Reference: patent publication US20140356383A1, “ADMINISTRATION OF AN ANTI-GCC ANTIBODY-DRUG CONJUGATE AND A DNA DAMAGING AGENT IN THE TREATMENT OF CANCER” (priority 2013, published 2014)
